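Growth conditions: 96-well plates. Treatment: test compound, 48 hours, 5 concentrations. Analysis: linear interpolation between bracketing concentrations; unreached endpoints set to highest concentration. GI50: concentration for 50% inhibition of growth. TGI denotes the concentration required for complete inhibition of growth.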
What was measured:
Experiment in all cases: NCI-60 cell line screen, 48 h
HS 578T breast = system: HS 578T breast
MOLT-4 leukemia = system: MOLT-4 leukemia
LOX IMVI melanoma = system: LOX IMVI melanoma
SR leukemia = system: SR leukemia
MCF7 breast = system: MCF7 breast
SK-MEL-2 melanoma = system: SK-MEL-2 melanoma
A498 renal = system: A498 renal
OVCAR-4 ovarian = system: OVCAR-4 ovarian
UACC-62 melanoma = system: UACC-62 melanoma
OVCAR-3 ovarian = system: OVCAR-3 ovarian

Row | SMILES | GI50 (HS 578T breast) [µM] | TGI (HS 578T breast) [µM] | GI50 (MOLT-4 leukemia) [µM] | TGI (MOLT-4 leukemia) [µM] | GI50 (LOX IMVI melanoma) [µM] | TGI (LOX IMVI melanoma) [µM] | GI50 (SR leukemia) [µM] | TGI (SR leukemia) [µM] | GI50 (MCF7 breast) [µM] | TGI (MCF7 breast) [µM] | GI50 (SK-MEL-2 melanoma) [µM] | TGI (SK-MEL-2 melanoma) [µM] | GI50 (A498 renal) [µM] | TGI (A498 renal) [µM] | GI50 (OVCAR-4 ovarian) [µM] | TGI (OVCAR-4 ovarian) [µM] | GI50 (UACC-62 melanoma) [µM] | TGI (UACC-62 melanoma) [µM] | GI50 (OVCAR-3 ovarian) [µM] | TGI (OVCAR-3 ovarian) [µM]
1 | COc1ccc2c(c1)C(=O)c1c-2c(OCCN(C)C)nc2cc(OC)ccc12 | 2.84 | 9.76 | 0.32 | 1.2 | 0.751 | 2.07 | 0.264 | 1.42 | 0.348 | 1.6 | 3.31 | 10.3 | 1.39 | 3.07 | 1.06 | 2.9 | 2.12 | 8.51 | 1.59 | 4.06
2 | CCN1/C(=C/C=C/C=C/c2sc3ccccc3[n+]2CC)Sc2ccccc21 | 0.272 | 0.987 | 0.234 | 1.02 | 0.296 | 1.6 | 0.0304 | 1.02 | 0.29 | 1.3 | 0.979 | 2.72 | 0.943 | 4.12 | 0.261 | 2.51 | 0.512 | 1.88 | 0.331 | 1.18
3 | COc1ccc(S(=O)(=O)NC2=NCCN2C(=S)SN2CCn3c2nsc3=S)cc1OC | 28.4 | > 100 | 27.1 | > 100 | 16.8 | 37.8 | 22.6 | > 100 | 15.7 | 35.7 | 24.1 | 75.1 | 37.3 | > 100 | 16 | 34.8 | 16.3 | 38 | 21 | 47
4 | O=C(Nc1ccc(Cl)cc1F)c1cc(F)ccc1O | 0.718 | 5.3 | 1.9 | 4.77 | 0.522 | 5.31 | 0.752 | > 100 | 1.77 | 9.28 | 0.519 | 3.12 | 0.251 | 0.98 | 0.941 | > 29.6 | 0.289 | 1.15 | 0.528 | 10.8
5 | CNS(=O)(=O)c1ccccc1C(=N)c1ccccc1 | – | > 100 | – | > 100 | – | > 100 | – | > 100 | – | > 100 | – | > 100 | – | > 100 | – | > 100 | – | > 100 | – | > 100
6 | CN1C(=O)N(C)C2C1NN=c1s/c(=C\c3c[nH]c4ccccc34)c(=O)n12 (centres undefined) | 0.0342 | > 90.9 | 0.0644 | > 100 | 0.0518 | > 100 | 0.0345 | > 100 | 0.0338 | > 100 | 34.6 | > 100 | 0.0688 | 0.602 | – | > 100 | 0.0464 | > 100 | 0.0325 | > 100
7 | CC(C)(C)CC(C)(C)N(CSc1ccc(Cl)cc1)CSc1ccc(Cl)cc1 | 1.72 | > 100 | 0.841 | 5.09 | 0.337 | 1.06 | 1.23 | 5.51 | 2.2 | 10.2 | 2.54 | 6.28 | 0.207 | 0.863 | 1.74 | 9.88 | 1.72 | 3.77 | 1.78 | 4.25
8 | CCc1nc(-n2c(CC)nc3ccccc3c2=O)nc(N)c1-c1ccc(Cl)cc1 | 48.4 | > 100 | 73.3 | > 100 | 6.91 | > 100 | > 100 | > 100 | > 50.9 | > 100 | > 100 | > 100 | 27.2 | > 94.5 | > 100 | > 100 | 5.46 | > 100 | 31.8 | > 100
9 | OC(COc1cccc2ccccc12)CN1CCN(c2ccc(Cl)cc2)CC1 (centres undefined) | 23.4 | > 100 | > 100 | > 100 | 26.3 | > 100 | > 100 | > 100 | 29.9 | > 100 | 21.7 | 60.3 | 21.3 | 92 | 21.7 | 49.3 | 23.3 | > 100 | 23.8 | 69.1
10 | CCC(C(=O)c1cccs1)C(O)(C(F)(F)F)C(F)(F)F (centres undefined) | – | > 100 | – | > 100 | – | > 100 | – | > 100 | – | > 100 | – | > 100 | – | > 100 | – | > 100 | – | > 100 | – | > 100
11 | Cc1cc(Nc2cc(CN3CCOCC3)c3nc(C)c(Cc4ccc(Cl)cc4F)n3n2)n[nH]1 | 0.915 | 5.6 | 1.59 | 6.71 | 1.11 | 2.69 | 0.282 | 1.53 | 0.644 | 12.9 | 2.37 | 7.64 | 0.288 | 1.1 | 2.85 | 16.7 | 2.36 | 11.3 | 3.24 | 15.3
